Test system: collagen induced arthritis
Experiment: Collagen induced arthritis model in DBA/1 mice
Assay type: in vivo
Conditions: Dexamethasone dose not given; for clinical score: JBI-589 50 mg/kg po BID day 0-45; for clinical score / bone erosion (histopathology) / joint inflammation (histopathology) / pannus formation (histopathology): Etanercept 25 mg/kg IP day 31–45

| spleen weight (day 45, JBI-589 50 mg/kg po BID) | Compound | clinical score | bone erosion (histopathology) (JBI-589 50 mg/kg po BID) | joint inflammation (histopathology) (JBI-589 50 mg/kg po BID) | pannus formation (histopathology) (JBI-589 50 mg/kg po BID) | body weight (end of study, JBI-589 50 mg/kg po BID) |
| --- | --- | --- | --- | --- | --- | --- |
| stronger reduction | C[C@@H]1C[C@H]2[C@@H]3CCC4=CC(=O)C=C[C@]4(C)[C@@]3(F)[C@@H](O)C[C@]2(C)[C@@]1(O)C(=O)CO [Dexamethasone] | strong inhibition | significantly decreased | significantly decreased | significantly decreased | stronger reduction |
| – | Etanercept | comparable inhibition | no appreciable effect | no appreciable effect | no appreciable effect | – |
